Test results as given in patent US9650340B2, “5-fluoro-N-(pyridin-2-yl)pyridin-2-amine derivatives containing a sulfoximine group” (BAYER PHARMA AKTIENGESELLSCHAFT, priority 2012, dated 2017).
Converted amounts (≈) assume the structure as drawn.

What was measured:
[1] = system: A2780, human ovarian carcinoma cells; experiment: Proliferation assay, A2780 (crystal violet); assay type: cell-based; conditions: Homo sapiens, A2780, 96 h, A2780, 4 days; read-out: Inhibition of A2780 cell proliferation IC50
Experimental: Cultivated tumour cells (HeLa, human cervical tumour cells, ATCC CCL-2; NCI-H460, human non-small cell lung carcinoma cells, ATCC HTB-177; A2780, human ovarian carcinoma cells, ECACC #93112519; DU 145, hormone-independent human prostate carcinoma cells, ATCC HTB-81; HeLa-MaTu-ADR, multidrug-resistant human cervical carcinoma cells, EPO-GmbH Berlin; Caco-2, human colorectal carcinoma cells, ATCC HTB-37; B16F10, mouse melanoma cells, ATCC CRL-6475) were plated at a density of 5,000 cells/well (DU145, HeLa-MaTu-ADR), 3,000 cells/well (NCI-H460, HeLa), 2,500 cells/well (A2780), 1,500 cells/well (Caco-2), or 1,000 cells/well (B16F10) in a 96-well multititer plate in 200 μL of their respective growth medium supplemented 10% fetal calf serum. After 24 hours, the cells of one plate (zero-point plate) were stained with crystal violet (see below), while the medium of the other plates was replaced by fresh culture medium (200 μl), to which the test substances were added in various concentrations (0 μM, as well as in the range of 0.001-10 μM; the final concentration of the solvent dimethyl sulfoxide was 0.5%). The cells were incubated for 4 days in the presence of test substances. Cell proliferation was determined by staining the cells with crystal violet: the cells were fixed by adding 20 μl/measuring point of an 11% glutaric aldehyde solution for 15 minutes at room temperature. After three washing cycles of the fixed cells with water, the plates were dried at room temperature. The cells were stained by adding 100 μl/measuring point of a 0.1% crystal violet solution (pH 3.0). After three washing cycles of the stained cells with water, the plates were dried at room temperature. The dye was dissolved by adding 100 μl/measuring point of a 10% acetic acid solution. The extinction was determined by photometry at a wavelength of 595 nm. The change of cell number, in percent, was calculated by normalization of the measured values to the extinction values of the zero-point plate (=0%) and the extinction of the untreated (0 μm) cells (=100%). The IC50 values (inhibitory concentration at 50% of maximal effect) were determined by means of a 4 parameter fit. Non-adherent MOLM-13 human acute myeloid leukemia cells (DSMZ ACC 554) were seeded at a density of 5,000 cells/well in a 96-well multititer plate in 100 μL of growth medium supplemented 10% fetal calf serum. After 24 hours, cell viability of one plate (zero-point plate) was determined with the Cell Titre-Glo Luminescent Cell Viability Assay (Promega), while 50 μL of test compound containing medium was added to the wells of the other plates (final concentrations in the range of 0.001-10 μM and DMSO controls; the final concentration of the solvent dimethyl sulfoxide was 0.5%). Cell viability was assessed after 72-hour exposure with the Cell Titre-Glo Luminescent Cell Viability Assay (Promega).

Caco-2 permeation assay = assay type: in vitro ADME, human; conditions: human; for Papp A→B at 2 h, 2 µM / Papp B→A at 2 h, 2 µM: Caco-2, pH 7.2, Caco-2, 2 μM test compound; for Papp A→B at 2 h, 2 µM: apical to basolateral, read-out: Papp A-B (Mari); for Papp B→A at 2 h, 2 µM: basolateral to apical, read-out: Papp B-A (Mari); for efflux ratio at 2 h, 2 µM: Caco-2, pH 7.2, Caco-2, 2 μM, Papp B-A / Papp A-B
Experimental: 5. Caco-2 Permeation Assay:
Caco-2 cells (purchased from DSMZ Braunschweig, Germany) were seeded at a density of 4.5×10^4 cells per well on 24 well insert plates, 0.4 μm pore size, and grown for 15 days in DMEM medium supplemented with 10% fetal bovine serum, 1% GlutaMAX (100×, GIBCO), 100 U/mL penicillin, 100 μg/mL streptomycin (GIBCO) and 1% non essential amino acids (100 ×). Cells were maintained at 37° C. in a humified 5% CO2 atmosphere. Medium was changed every 2-3 day. Before running the permeation assay, the culture medium was replaced by a FCS—free hepes-carbonate transport buffer (pH 7.2). For assessment of monolayer integrity the transepithelial electrical resistance (TEER) was measured. Test compounds were predissolved in DMSO and added either to the apical or basolateral compartment in final concentration of 2 μM in transport buffer. Before and after 2 h incubation at 37° C. samples were taken from both compartments. Analysis of compound content was done after precipitation with methanol by LC/MS/MS analysis. Permeability (Papp) was calculated in the apical to basolateral (A→B) and basolateral to apical (B→A) directions. The apparent permeability was calculated using following equation: Papp=(Vr/Po)(1/S)(P2/t)
Where Vr is the volume of medium in the receiver chamber, Po is the measured peak area or height of the test drug in the donor chamber at t=o, S the surface area of the monolayer, P2 is the measured peak area of the test drug in the acceptor chamber after 2 h of incubation, and t is the incubation time. The efflux ratio basolateral (B) to apical (A) was calculated by dividing the Papp B-A by the Papp A-B. In addition the compound recovery was calculated. The following reference compounds were used for the classification of the permeability class: Antipyrine, Pyrazosin, Verapamil, Fluvastatin, Cimetidine, Ranitidine, Atenolol, Sulfasalazine.

[2] = Equilibrium shake flask solubility assay, thermodynamic solubility in citrate buffer pH 4; assay type: physicochemical; conditions: citrate buffer, pH 4, aqueous buffer, thermodynamic from solid, citrate buffer pH 4, 24 h, room temperature; read-out: Solubility in aqueous Citrate buffer pH4
Experimental: 4b) Thermodynamic Solubility in Citrate Buffer pH 4
Thermodynamic solubility was determined by an equilibrium shake flask method [Literature: Edward H. Kerns and Li Di (2008) Solubility Methods in: Drug-like Properties: Concepts, Structure Design and Methods, p276-286. Burlington, Mass.: Academic Press].
A saturated solution of the drug was prepared and the solution was mixed for 24 h to ensure that equilibrium has been reached. The solution was centrifuged to remove the insoluble fraction and the concentration of the compound in solution was determined using a standard calibration curve.
To prepare the sample, 1.5 mg solid compound was weighed in a 4 ml glass vial. 1 ml Citrate buffer pH 4 was added. The suspension was put on a stirrer and mixed for 24 hrs at room temperature. The solution was centrifuged afterwards. To prepare the sample for the standard calibration, 0.6 mg solid sample was dissolved in 19 ml acetonitrile/water 1:1. After sonification the solution was filled up with acetonitrile/water 1:1 to 20 ml.
Sample and standards were quantified by HPLC with UV-detection. For each sample two injection volumes (5 and 50 μl) in triplicates were made. Three injection volumes (5 μl, 10 μl and 20 μl) were made for the standard.
The areas of sample- and standard injections as well as the calculation of the solubility value (in mg/l) were determined by using HPLC software (Waters Empower 2 FR).

Work on `COc1cc(F)ccc1-c1cc(Nc2cc(CS(C)(=N)=O)ccn2)ncc1F` (racemic) [Example 1, (rac)-5-Fluoro-4-(4-fluoro-2-methoxyphenyl)-N-{4-[(S-methylsulfonimidoyl)methyl]pyridin-2-yl}pyridin-2-amine] yielded an IC50 [1] of 26 nM, a Papp A→B at 2 h, 2 µM (Caco-2 permeation assay) of 15.5 ×10⁻⁶ cm/s and a Papp B→A at 2 h, 2 µM (Caco-2 permeation assay) of 18 ×10⁻⁶ cm/s. For the same compound, the solubility at 24 h [2] was 489 µg/mL (≈ 1210 µM).

Work on `COc1cc(F)ccc1-c1cc(Nc2cc(CS(C)(=N)=O)cc(C)n2)ncc1F` (racemic) [Example 4, (rac)-5-Fluoro-4-(4-fluoro-2-methoxyphenyl)-N-{6-methyl-4-[(S-methylsulfonimidoyl)methyl]pyridin-2-yl}pyridin-2-amine] yielded an IC50 [1] of 37 nM, a Papp A→B at 2 h, 2 µM (Caco-2 permeation assay) of 19.6 ×10⁻⁶ cm/s and a Papp B→A at 2 h, 2 µM (Caco-2 permeation assay) of 14.9 ×10⁻⁶ cm/s. It also gave an efflux ratio at 2 h, 2 µM (Caco-2 permeation assay) of 0.76 and a solubility at 24 h [2] of 470 µg/mL (≈ 1120 µM).

With `COc1cc(F)ccc1-c1cc(Nc2cc(CS(=N)(=O)CCO)ccn2)ncc1F` (racemic) [Example 8, (rac)-2-{S-[(2-{[5-Fluoro-4-(4-fluoro-2-methoxyphenyl)pyridin-2-yl]amino}pyridin-4-yl)methyl]sulfonimidoyl}ethanol] the IC50 [1] was 45 nM, the Papp A→B at 2 h, 2 µM (Caco-2 permeation assay) was 4.1 ×10⁻⁶ cm/s and the Papp B→A at 2 h, 2 µM (Caco-2 permeation assay) was 24.6 ×10⁻⁶ cm/s. It also gave an efflux ratio at 2 h, 2 µM (Caco-2 permeation assay) of 6 and a solubility at 24 h [2] of 730 µg/mL (≈ 1680 µM).

In the case of `COc1cc(F)ccc1-c1cc(Nc2cc(CS(C)(=N)=O)cc(F)n2)ncc1F` (racemic) [Example 17, (rac)-5-Fluoro-4-(4-fluoro-2-methoxyphenyl)-N-{6-fluoro-4-[(S-methylsulfonimidoyl)methyl]pyridin-2-yl}pyridin-2-amine], the IC50 [1] is reported as 14 nM, the Papp A→B at 2 h, 2 µM (Caco-2 permeation assay) is reported as 14.1 ×10⁻⁶ cm/s and the Papp B→A at 2 h, 2 µM (Caco-2 permeation assay) is reported as 13.5 ×10⁻⁶ cm/s. The efflux ratio at 2 h, 2 µM (Caco-2 permeation assay) was 0.96 and the solubility at 24 h [2] was 3 µg/mL (≈ 7.1 µM).

For `COc1cc(F)ccc1-c1cc(Nc2cc(CS(C)(=N)=O)cc(C(F)(F)F)n2)ncc1F` (single isomer, unassigned; (+)) [Example 22, (+)-5-Fluoro-4-(4-fluoro-2-methoxyphenyl)-N-{4-[(S-methylsulfonimidoyl)methyl]-6-(trifluoromethyl)pyridin-2-yl}pyridin-2-amine], the IC50 [1] was 12 nM, the Papp A→B at 2 h, 2 µM (Caco-2 permeation assay) was 4.8 ×10⁻⁶ cm/s and the Papp B→A at 2 h, 2 µM (Caco-2 permeation assay) was 5.3 ×10⁻⁶ cm/s. The efflux ratio at 2 h, 2 µM (Caco-2 permeation assay) was 1.1 and the solubility at 24 h [2] was 52 µg/mL (≈ 110 µM).
